Source: US6391304B1, “Peptides derived from the ENV gene of the feline immunodeficiency virus and their applications” (Centre National de la Recherche Scientifique, priority 1997, dated 2002)
“And” between values parts separate entries of the source, which are not always exact repeats. Equal values may be shown once. “Also recorded” adds a separate entry of the source. Ends that are not written are not given here.

Tests used:
[1] = system: FIV Wo isolate; assay: Plasmatic viraemia by isolation of the virus in PBM cell culture; format: in vivo, cats
From the text: (§1) The cats are subjected to a virulence test, one week after the final immunization, by means of an intraperitoneal inoculation of 10 CID50 of FIV Wo isolate, one CID50 corresponding to the dose capable of infecting 50% of the cats.
The plasmatic viraemia is quantified by culturing PBM cells (Ho D. D. et a., N. Engl. J. Med., 1989, 321, 1621-1625).
The infection is estimated by determining the p25 by ELISA (Petcheck, IDEXX) in culture supernatants, obtained 14 and 21 days after the inoculation of different volumes of plasma (0.2, 2, 10, 40, 200 or 1000 μl). The final plasmatic dilution giving a positive culture is considered as the limit point.
The plasmatic viraemia is expressed as TCDID50/ml of plasma (→doses capable of infecting 50% of the tissue cultures).
For the cats immunized with the TM3-19 peptide and the control cats, the plasmatic viral load is evaluated 3 weeks after the test by isolating the virus.

[2] = system: viral components (SU2 and TM2 peptides, recombinant capsid protein); assay: Antiviral humoral response after the virulence test (ELISA with viral components); format: in vivo; settings: in comparison with the control cats
Method: (§2) The production on of antibodies is evaluated before the test by means of an ELISA using an immobilized peptide (SU2, SU5, TM2 or TM3-19) and immunoprecipitation. After the test, the seroconversion is monitored by an ELISA using immobilized envelope peptides and a recombinant FTV capsid protein.
(§3) The ELISA with the immobilized envelope peptides corresponding to the immunogenic domains SU2 and TM2 and with the immobilized recombinant p25 protein (FIV capsid protein) is carried out as described in Avraméas A. et al. (Res. Virol., 1993, 144, 209-218).
(§4) After the test, the seroconversion against the envelope peptides and the p25 protein is evaluated at serum dilutions of 1/25 and 1/100, respectively.
After testing with the FIV Wo strain, most of the cats show a humoral response with respect to the viral components, as illustrated by the ELISA with the SU2 and TM2 peptides, derived from the external and transmembrane glycoproteins, respectively, and the recombinant capsid protein.

[3] = system: FIV Wo isolate; assay: Plasmatic viral load by competitive RT-PCR after the virulence test; format: in vivo, cats; settings: for course of the primary infection (viral RNA in plasma, viral dissemination): after test with 10 CID50 of Wo isolate, relative to control cats, FIG. 3
Method: Groups of four cats 4½ months old are immunized subcutaneously with 120 μg of FIV peptide (approximately 250 μg of peptide coupled to KLH (keyhole limpet haemocyanin)), emulsified in complete Freund's adjuvant.
Four repeat immunizations are administered subcutaneously in an incomplete Freund's adjuvant, generally at intervals of 2-3 weeks, although the interval between the last 2 […] was 7 weeks.
as §1
The plasma is filtered (0.45 μm) and the RNA not associated with cells is extracted directly from the filtered plasma using the Viral RNA kit (Qiagene) and eluted in 50 μl of water according to the manufacturer's instructions, and the RNA is then divided into aliquots and stored at −80° C.
A conserved region of the FIV gag gene is selected as a target sequence for the reverse transcription of the competitive RNA and the overlapping PCR amplification.
For the synthesis of the cDNA, 2.5 μl of viral RNA are mixed with 2.5 μl containing different numbers of copies of competitive RNA; typically, the various samples of competitive RNA are prepared using 5 semi-logarithmic dilutions, straddling the number of copies estimated in the biological sample.
The RNA is denatured at 65° C. for 5 minutes and immediately placed on ice. The reagents for the reverse transcription (15 μl) are added.
The final reaction mixtures contain 0.3 U/ml of random hexanucleotides (sequences of 6 randomly aligned nucleotides which make it possible theoretically to amplify any RNA fragment) (Pharmcia), 0.5 mM of dNTP, 10 mM of DTT, 1× of commercial buffer (Gibco BRL) and 100 U of Superscript II (Glbco BRL), in a volume of 20 μl.
The reactions are first carried out at 25° C. for 10 minutes to promote the hybridization of the primers, and then at 42° C. for 50 minutes. The reverse transcriptase is inactivated by incubation at 95° C. for 5 minutes.
The highly conserved sequences are selected as primers. The complementary DNA is amplified by overlapping PCR, using:
For the first amplification, the PCR reagents (80 μl) are added as a mixture with 20 μl of cDNA.
The DNA is denatured at 94° C. for 3 minutes, subjected to 28 cycles of amplification (94° C. 30 s/55° C. 30 s/72° C. 30 s) and to an elongation at 72° C. for 7 minutes.
For the overlapping amplification, 2 μl of the product of the first amplification is transferred into 98 μl of reaction mixture containing 200 μM of dNTP, 1.5 mM of MgCl2, 0.5 μM of each internal primer, 1× of commercial buffer (Gibco BRL) and 0.25 U of Taq polymerase (Gibco BRL).
The DNA is denatured at 94° C. for 3 minutes, subjected to 28 cycles of amplification (94° C. 30 s/52° C. 30 s/72° C. 30 s) and to an elongation at 72° C. for 7 minutes.
The amplification products (10 μl ) are subjected to electrophoresis on 2.75% agarose gel.
Digital images of the gels stained with ethidium bromide are obtained using the Appligene Imager and the densitometry analyses are carried out with the Image NIH software. The density of the competitive product is adjusted as a function of the difference between the length of the native sequence and that of the competitive sequence.
The logarithm of the ratio:density or competitive product/density of the native product, is plotted as a function of the logarithm of the number of copies of competitive RNA added to each reaction.
The best adjustment is determined by the least-squares method and the number of copies of native RNA corresponds to the intersection of the axis of the Xs (Piatak M. Jr. et al., Biotechniques, 1993, 14, 70-80).
The cumulative area under the curve (Dawson J., Drug Information J., 1994, 28, 723-732) is calculated from graphs illustrating the ratio: copies of viral RNA/ml of plasma/time, and compared with the Mann-Whitney test.

[4] = system: p25 recombinant FIV capsid protein; assay: Seroconversion ELISA after the virulence test, p25; format: in vivo, cats; settings: for Binding of the sera to p25, 3 weeks after the virulence test / Binding of the sera to p25, 4 weeks after the virulence test / Binding of the sera to p25, 5 weeks after the virulence test: ELISA, seral dilution 1/100, individual cats
Method: as §1, §2, §3
Microplates (Immunolon II, Dynatech) are coated with 0.5 μg/well for the peptides and with 0.1 μg/well for the p25 protein.
The tests are carried out in duplicate and the results are expressed as average values.
as §4
The absorbance values (at 405 nm) are corrected by subtraction of the absorbance values obtained by binding with an immobilized control peptide.
The tests are normalized with reference to the binding of a mixture of serum from cats infected with FIV with a peptide representing the immunodominant domain of the FIV transmembrane glycoprotein (TM2) (Avraméas A. et al., Res. Virol., 1993, 144, 209-218).

[5] = 3 weeks after the test with 10 CID50 of FIV Wo, individual cats

Substance | Plasmatic viraemia, PBMC culture [1, 5] | reduction in the level of infectious virus in the plasma ([1]; three-quarters of the cats, 3 weeks after the test, versus control cats) | development of an antiviral humoral response after the virulence test [2] | Plasmatic viraemia, RT-PCR [3, 5] | course of the primary infection (viral RNA in plasma, viral dissemination) [3] | reduction in the viral load relative to the control cats, Mann-Whitney test p ([3]; area under the cumulative curve at 3 weeks and 4 weeks after the test) | detection of plasmatic viraemia during the measurement period ([3]; cat 348) | number of copies of viral RNA observed in plasma (maximum) ([3]; primary infection, measurement period) | Binding of the sera to p25, 3 weeks after the virulence test [4] | Binding of the sera to p25, 4 weeks after the virulence test [4] | Binding of the sera to p25, 5 weeks after the virulence test [4] | response to the p25 protein ([4]; at 5 weeks after the test)
KKGLQQLQEWEDWVGWIGN [TM3-19, 19-amino-acid fragment of the TM3 domain of the FIV Wo Env transmembrane glycoprotein (759-777)] | 1 TCID50/ml of plasma (3×) and 1 × 10^2 TCID50/ml of plasma | about 3 logs | weaker and retarded in 3 cats (346, 348, 349) | undetectable (2×) and 1.19 × 10^7 copies of viral RNA/ml of plasma and 5.56 × 10^6 copies of viral RNA/ml of plasma | generally different from that observed with the control cats; also recorded: the infection in the other 3 cats of this group appears in a retarded manner; also recorded: significantly retards the viral dissemination | 0.02 | not possible to detect a plasmatic viraemia in one of the cats (348) | ≤ 3.1×10^6 copies/ml | 0 optical density (2×) and 0.2 optical density and 0.1 optical density | 0.1 optical density and 2.3 optical density and 0 optical density (2×) | 0.6 optical density and 2.3 optical density and 0 optical density and 0.1 optical density | one cat (348) immunized with the TM3-19 peptide does not respond and among the other 3 cats, 2 animals (346, 349) develop only weak responses
SU2: peptide of the SU2 domain of the FIV surface envelope glycoprotein, SEQ ID NO: 2, used as immunogen (RAISSWKQRNRWEWRPD) | – | – | – | – | does not appear to modify the course of the primary infection; also recorded: do not modify the course of the infection | – | – | – | 0 optical density | 0.2 optical density (2×) and 0.4 optical density and 0 optical density | 1.1 optical density and 1.3 optical density and 1.9 optical density and 0.2 optical density | –
